The values that follow come from publication PMC5218480 (PLoS ONE, 2017).

In this assay the test system is MV-4-11 cells. Nature of the assay: Gene expression microarray analysis (Affymetrix PrimeView) and GSEA. The format is cell-based, human. On the set-up: RFU PODN (11730768_x_at) / Fold change /veh PODN (11730768_x_at) / RFU LINC00158 (11744669_a_at) / Fold change /veh LINC00158 (11744669_a_at) / RFU DUSP10 (11751237_a_at) / Fold change /veh DUSP10 (11751237_a_at) / RFU ID3 (11757404_x_at) / Fold change /veh ID3 (11757404_x_at) / RFU PLEKHG5 (11737974_s_at) / Fold change /veh PLEKHG5 (11737974_s_at) / RFU LRRC4B (11730491_at) / Fold change /veh LRRC4B (11730491_at) / RFU GIMAP4 (11747438_a_at) / Fold change /veh GIMAP4 (11747438_a_at) / RFU KRT8 (11758183_x_at) / Fold change /veh KRT8 (11758183_x_at) / RFU CNN1 (11734310_a_at) / Fold change /veh CNN1 (11734310_a_at) / RFU VPS37D (11726825_at) / Fold change /veh VPS37D (11726825_at) / RFU C10orf10 (11716522_x_at) / Fold change /veh C10orf10 (11716522_x_at) / RFU KIR2DL2 /// KIR2DL4 /// KIR2DL5A /// KIR2DL5B /// KIR2DS1 /// KIR2DS2 /// KIR2DS3 /// KIR2DS4 /// KIR3DL3 /// KIR3DL3 /// KIR3DS1 (11738374_at) / Fold change /veh KIR2DL2 /// KIR2DL4 /// KIR2DL5A /// KIR2DL5B /// KIR2DS1 /// KIR2DS2 /// KIR2DS3 /// KIR2DS4 /// KIR3DL3 /// KIR3DL3 /// KIR3DS1 (11738374_at) / RFU C1QL1 (11718748_at) / Fold change /veh C1QL1 (11718748_at) / RFU TMPRSS4 (11747572_a_at) / Fold change /veh TMPRSS4 (11747572_a_at) / RFU HAMP (11756126_x_at) / Fold change /veh HAMP (11756126_x_at) / RFU RNFT2 (11725882_a_at) / Fold change /veh RNFT2 (11725882_a_at) / RFU NR4A2 (11747474_a_at) / Fold change /veh NR4A2 (11747474_a_at) / RFU ABCC12 (11746883_a_at) / Fold change /veh ABCC12 (11746883_a_at) / RFU TMEM136 (11760407_x_at) / Fold change /veh TMEM136 (11760407_x_at) / RFU CLDN22 /// WWC2 (11732394_at) / Fold change /veh CLDN22 /// WWC2 (11732394_at) / RFU HLA-DPB1 (11760878_x_at) / Fold change /veh HLA-DPB1 (11760878_x_at) / RFU SPINT1 (11716480_a_at) / Fold change /veh SPINT1 (11716480_a_at) / RFU GAP43 (11754022_s_at) / Fold change /veh GAP43 (11754022_s_at) / RFU A4GNT (11735810_at) / Fold change /veh A4GNT (11735810_at) / RFU PRB3 (11715151_x_at) / Fold change /veh PRB3 (11715151_x_at) / RFU TUBB4B (11761932_at) / Fold change /veh TUBB4B (11761932_at) / RFU CAPN14 (11732068_a_at) / Fold change /veh CAPN14 (11732068_a_at) / RFU TMCC2 (11721928_a_at) / Fold change /veh TMCC2 (11721928_a_at) / RFU IRGQ (11745062_a_at) / Fold change /veh IRGQ (11745062_a_at) / RFU FAM174B (11720279_a_at) / Fold change /veh FAM174B (11720279_a_at) / RFU TMPRSS4 (11748680_a_at) / Fold change /veh TMPRSS4 (11748680_a_at) / RFU FAM212B (11763350_a_at) / Fold change /veh FAM212B (11763350_a_at) / RFU PLEKHG5 (11743358_a_at) / Fold change /veh PLEKHG5 (11743358_a_at) / RFU ZSCAN30 (11745921_a_at) / Fold change /veh ZSCAN30 (11745921_a_at) / RFU CMKLR1 (11741424_a_at) / Fold change /veh CMKLR1 (11741424_a_at) / RFU LOC101060620 /// MAPK8IP1 (11723275_at) / Fold change /veh LOC101060620 /// MAPK8IP1 (11723275_at) / RFU SPTSSB (11747773_x_at) / Fold change /veh SPTSSB (11747773_x_at) / RFU PRSS12 (11739890_at) / Fold change /veh PRSS12 (11739890_at) / RFU BIN1 (11741810_x_at) / Fold change /veh BIN1 (11741810_x_at) / RFU WNT11 (11732464_a_at) / Fold change /veh WNT11 (11732464_a_at) / RFU C10orf10 (11716521_a_at) / Fold change /veh C10orf10 (11716521_a_at) / RFU C5orf56 (11738089_at) / Fold change /veh C5orf56 (11738089_at) / RFU CYB561 (11721691_x_at) / Fold change /veh CYB561 (11721691_x_at) / RFU ANKRD19P (11752326_a_at) / Fold change /veh ANKRD19P (11752326_a_at) / RFU OR2T12 /// OR2T33 /// OR2T8 (11738714_s_at) / Fold change /veh OR2T12 /// OR2T33 /// OR2T8 (11738714_s_at) / RFU VCAN (11748164_a_at) / Fold change /veh VCAN (11748164_a_at) / RFU JSRP1 (11732532_at) / Fold change /veh JSRP1 (11732532_at) / RFU KRTAP10-11 (11738290_x_at) / Fold change /veh KRTAP10-11 (11738290_x_at) / RFU MYO3A (11730013_a_at) / Fold change /veh MYO3A (11730013_a_at) / RFU EBF3 (11725865_a_at) / Fold change /veh EBF3 (11725865_a_at) / RFU CAMK2N1 (11719241_x_at) / Fold change /veh CAMK2N1 (11719241_x_at) / RFU C5orf56 (11738088_a_at) / Fold change /veh C5orf56 (11738088_a_at) / RFU OLFML3 (11715873_a_at) / Fold change /veh OLFML3 (11715873_a_at) / RFU LOC100653217 /// NTM (11731650_a_at) / Fold change /veh LOC100653217 /// NTM (11731650_a_at) / RFU MAPK11 (11762145_a_at) / Fold change /veh MAPK11 (11762145_a_at) / RFU FIZ1 (11724087_x_at) / Fold change /veh FIZ1 (11724087_x_at) / RFU OASL (11726364_x_at) / Fold change /veh OASL (11726364_x_at) / RFU SOX15 (11748057_x_at) / Fold change /veh SOX15 (11748057_x_at) / RFU CD79A (11719716_a_at) / Fold change /veh CD79A (11719716_a_at) / RFU HIST1H1D (11736915_at) / Fold change /veh HIST1H1D (11736915_at) / RFU CASKIN2 (11723855_a_at) / Fold change /veh CASKIN2 (11723855_a_at) / RFU LOC730098 (11760151_x_at) / Fold change /veh LOC730098 (11760151_x_at) / RFU OR4N2 (11742367_at) / Fold change /veh OR4N2 (11742367_at) / RFU PRRT2 (11749266_a_at) / Fold change /veh PRRT2 (11749266_a_at) / RFU SNX32 (11753110_a_at) / Fold change /veh SNX32 (11753110_a_at) / RFU CDHR5 (11726645_a_at) / Fold change /veh CDHR5 (11726645_a_at) / RFU RCAN1 (11760418_a_at) / Fold change /veh RCAN1 (11760418_a_at) / RFU FAM167A (11723789_a_at) / Fold change /veh FAM167A (11723789_a_at) / RFU FAM26E (11764081_at) / Fold change /veh FAM26E (11764081_at) / RFU ISYNA1 (11749810_s_at) / Fold change /veh ISYNA1 (11749810_s_at) / RFU ACY1 (11761880_at) / Fold change /veh ACY1 (11761880_at) / RFU 11764098_at / Fold change /veh 11764098_at / RFU SAMD14 (11745864_x_at) / Fold change /veh SAMD14 (11745864_x_at) / RFU NPB (11741838_a_at) / Fold change /veh NPB (11741838_a_at) / RFU TMPRSS6 (11731388_a_at) / Fold change /veh TMPRSS6 (11731388_a_at) / RFU KRTAP10-2 (11738614_at) / Fold change /veh KRTAP10-2 (11738614_at) / RFU ARHGAP8 /// PRR5-ARHGAP8 (11727945_x_at) / Fold change /veh ARHGAP8 /// PRR5-ARHGAP8 (11727945_x_at) / RFU KRTAP5-7 /// NADSYN1 (11734609_at) / Fold change /veh KRTAP5-7 /// NADSYN1 (11734609_at) / RFU RASL12 (11751679_a_at) / Fold change /veh RASL12 (11751679_a_at) / RFU CDKN2B (11736163_a_at) / Fold change /veh CDKN2B (11736163_a_at) / RFU PRF1 (11729649_at) / Fold change /veh PRF1 (11729649_at) / RFU, ZNF638 /// ZNF638-IT1 / Fold change vs veh, ZNF638 /// ZNF638-IT1 / RFU, PANK3 / Fold change vs veh, PANK3 / RFU, SH3YL1 / Fold change vs veh, SH3YL1 / RFU, ZEB2 / Fold change vs veh, ZEB2 / RFU, NRIP1 / Fold change vs veh, NRIP1 / RFU, PTTG1IP / Fold change vs veh, PTTG1IP / RFU, CAPN2 / Fold change vs veh, CAPN2 / RFU, MED14 / Fold change vs veh, MED14 / RFU, SNORA58 / Fold change vs veh, SNORA58 / RFU, C1orf63 / Fold change vs veh, C1orf63 / RFU, LRRFIP1 / Fold change vs veh, LRRFIP1 / RFU, NDUFAF7 / Fold change vs veh, NDUFAF7 / RFU, SLC12A2 / Fold change vs veh, SLC12A2 / RFU, IBTK / Fold change vs veh, IBTK / RFU, ESF1 / Fold change vs veh, ESF1 / Fold change vs veh, TMEM50B / RFU, TAOK1 / Fold change vs veh, TAOK1 / RFU, ACBD3 / Fold change vs veh, ACBD3 / RFU, TMA16 / Fold change vs veh, TMA16 / RFU, RWDD3 / Fold change vs veh, RWDD3 / RFU, BCAT1 / Fold change vs veh, BCAT1 / RFU, EDEM3 / Fold change vs veh, EDEM3 / RFU, TMEM33 / Fold change vs veh, TMEM33 / RFU, WDR75 / Fold change vs veh, WDR75 / RFU, AHCTF1 / Fold change vs veh, AHCTF1 / RFU, TFRC / Fold change vs veh, TFRC / RFU, ZDHHC17 / Fold change vs veh, ZDHHC17 / RFU, NOM1 / Fold change vs veh, NOM1 / RFU, ARL8B / Fold change vs veh, ARL8B / RFU, ZBTB11 / Fold change vs veh, ZBTB11 / RFU, TAMM41 / Fold change vs veh, TAMM41 / RFU, KIAA1704 /// LOC100996395 / Fold change vs veh, KIAA1704 /// LOC100996395 / RFU, ING1 / Fold change vs veh, ING1 / RFU, TRMT61B / Fold change vs veh, TRMT61B / RFU, FUBP3 / Fold change vs veh, FUBP3 / RFU, TP53 / Fold change vs veh, TP53 / RFU, TNKS2 / Fold change vs veh, TNKS2 / RFU, ZFP14 / Fold change vs veh, ZFP14 / RFU, ACTR2 / Fold change vs veh, ACTR2 / RFU, PPP3R1 / Fold change vs veh, PPP3R1 / RFU, PIK3R1 / Fold change vs veh, PIK3R1 / RFU, HNRNPA1 / Fold change vs veh, HNRNPA1 / RFU, RNF170 / Fold change vs veh, RNF170 / RFU, ZNF28 / Fold change vs veh, ZNF28 / RFU, RNGTT / Fold change vs veh, RNGTT / RFU, OGT / Fold change vs veh, OGT / RFU, BRD1 / Fold change vs veh, BRD1 / RFU, MARS / Fold change vs veh, MARS / RFU, ZNF655 / Fold change vs veh, ZNF655 / RFU, FAHD1 / Fold change vs veh, FAHD1 / RFU, BDP1 / Fold change vs veh, BDP1 / RFU, LRRCC1 / Fold change vs veh, LRRCC1 / RFU, ARID1A / Fold change vs veh, ARID1A / RFU, ZNF146 / Fold change vs veh, ZNF146 / RFU, ZNF330 / Fold change vs veh, ZNF330 / RFU, GPN3 / Fold change vs veh, GPN3 / RFU, C9orf123 / Fold change vs veh, C9orf123 / RFU, N4BP2L2 / Fold change vs veh, N4BP2L2 / RFU, ARFIP1 / Fold change vs veh, ARFIP1 / RFU, FAM179B / Fold change vs veh, FAM179B / RFU, BCL10 / Fold change vs veh, BCL10 / RFU, UHRF1BP1L / Fold change vs veh, UHRF1BP1L / RFU, BET1 / Fold change vs veh, BET1 / RFU, CNOT2 / Fold change vs veh, CNOT2 / RFU, ZNF268 / Fold change vs veh, ZNF268 / Fold change vs veh, ZNF507 / RFU, DGCR2 / Fold change vs veh, DGCR2 / RFU, WDSUB1 / Fold change vs veh, WDSUB1 / Fold change vs veh, HSP90B1 /// MIR3652 / RFU, ADSS / Fold change vs veh, ADSS / RFU, GK / Fold change vs veh, GK / RFU, ZNF148 / Fold change vs veh, ZNF148 / RFU, TAF9 / Fold change vs veh, TAF9 / RFU, SLC1A5 / Fold change vs veh, SLC1A5 / RFU, SLMO2 / Fold change vs veh, SLMO2 / RFU, ABCC4 / Fold change vs veh, ABCC4 / RFU, LOC101060439 /// RAP1B / Fold change vs veh, LOC101060439 /// RAP1B / RFU, RFX7 / Fold change vs veh, RFX7 / RFU, GTPBP10 / Fold change vs veh, GTPBP10 / RFU, CNEP1R1 / Fold change vs veh, CNEP1R1 / RFU, BIVM-ERCC5 /// ERCC5 / Fold change vs veh, BIVM-ERCC5 /// ERCC5 / RFU, ILF3 / Fold change vs veh, ILF3 / RFU 11762660_at / Fold change /veh 11762660_at / RFU VCAN (11757783_s_at) / Fold change /veh VCAN (11757783_s_at) / RFU DDX43 (11728927_at) / Fold change /veh DDX43 (11728927_at) / RFU KRT8 (11758188_x_at) / Fold change /veh KRT8 (11758188_x_at) / RFU NKD1 (11759106_at) / Fold change /veh NKD1 (11759106_at) / RFU SRD5A1 (11742802_a_at) / Fold change /veh SRD5A1 (11742802_a_at) / RFU TPSAB1 /// TPSB2 (11721975_s_at) / Fold change /veh TPSAB1 /// TPSB2 (11721975_s_at) / RFU GSTM3 (11746129_a_at) / Fold change /veh GSTM3 (11746129_a_at) / RFU IL23R (11737362_x_at) / Fold change /veh IL23R (11737362_x_at) / RFU TMEM51 (11727254_a_at) / Fold change /veh TMEM51 (11727254_a_at) / RFU PIWIL2 (11732686_x_at) / Fold change /veh PIWIL2 (11732686_x_at) / RFU ORM1 (11744905_x_at) / Fold change /veh ORM1 (11744905_x_at) / RFU CCDC152 (11743942_at) / Fold change /veh CCDC152 (11743942_at) / RFU ECM1 (11717891_a_at) / Fold change /veh ECM1 (11717891_a_at) / RFU IL23R (11748794_a_at) / Fold change /veh IL23R (11748794_a_at) / RFU TNFAIP8L3 (11732012_x_at) / Fold change /veh TNFAIP8L3 (11732012_x_at) / RFU MBOAT4 (11741988_at) / Fold change /veh MBOAT4 (11741988_at) / RFU 11764193_at / Fold change /veh 11764193_at / RFU TMEM53 (11763286_at) / Fold change /veh TMEM53 (11763286_at) / RFU MAGEB2 (11727129_at) / Fold change /veh MAGEB2 (11727129_at) / RFU TMEM200A (11744735_a_at) / Fold change /veh TMEM200A (11744735_a_at) / RFU CCDC152 (11751479_a_at) / Fold change /veh CCDC152 (11751479_a_at) / RFU FAM211A (11726209_a_at) / Fold change /veh FAM211A (11726209_a_at) / RFU RGS16 (11746705_a_at) / Fold change /veh RGS16 (11746705_a_at) / RFU VCAN (11755009_s_at) / Fold change /veh VCAN (11755009_s_at) / RFU RHOB (11743442_s_at) / Fold change /veh RHOB (11743442_s_at) / RFU RGS16 (11720943_a_at) / Fold change /veh RGS16 (11720943_a_at) / RFU RGS16 (11720944_at) / Fold change /veh RGS16 (11720944_at) / RFU, VPS4B / Fold change vs veh, VPS4B / RFU, CREB1 / Fold change vs veh, CREB1 / RFU, DNAJC13 / Fold change vs veh, DNAJC13 / RFU, GNAQ / Fold change vs veh, GNAQ / RFU, CDK5R1 / Fold change vs veh, CDK5R1 / RFU, ZRANB3 / Fold change vs veh, ZRANB3 / RFU, CUL4A / Fold change vs veh, CUL4A / RFU, CCNY / Fold change vs veh, CCNY / RFU, UFL1 / Fold change vs veh, UFL1 / RFU, COG3 / Fold change vs veh, COG3 / RFU, DIAPH2 / Fold change vs veh, DIAPH2 / RFU, SKA2 / Fold change vs veh, SKA2 / RFU, AFF3 / Fold change vs veh, AFF3 / RFU, LMF1 / Fold change vs veh, LMF1 / RFU, IPO11 / Fold change vs veh, IPO11 / RFU, DFFB / Fold change vs veh, DFFB / RFU, FOXP1 / Fold change vs veh, FOXP1 / RFU, CARD8 / Fold change vs veh, CARD8 / RFU, STRN3 / Fold change vs veh, STRN3 / RFU, ADK / Fold change vs veh, ADK / RFU, RASSF2 / Fold change vs veh, RASSF2 / RFU, WIPF1 / Fold change vs veh, WIPF1 / RFU, LARP1B / Fold change vs veh, LARP1B / RFU, RASA1 / Fold change vs veh, RASA1 / RFU, RB1 / Fold change vs veh, RB1 / RFU, PPFIA1 / Fold change vs veh, PPFIA1 / RFU, MAT2A / Fold change vs veh, MAT2A / RFU, CCT5 / Fold change vs veh, CCT5 / RFU, WDR92 / Fold change vs veh, WDR92 / RFU, CUX1 / Fold change vs veh, CUX1 / RFU, TTC7A / Fold change vs veh, TTC7A / RFU, TMEM135 / Fold change vs veh, TMEM135 / RFU, DEPTOR / Fold change vs veh, DEPTOR / RFU, CPM / Fold change vs veh, CPM / RFU, DNAJB6 / Fold change vs veh, DNAJB6 / RFU, CACNA2D3 / Fold change vs veh, CACNA2D3 / RFU, DTX4 / Fold change vs veh, DTX4 / RFU, TFCP2 / Fold change vs veh, TFCP2 / RFU, GMCL1 /// GMCL1P1 / Fold change vs veh, GMCL1 /// GMCL1P1 / RFU, AEBP2 / Fold change vs veh, AEBP2 / RFU, SNHG1 /// SNORD22 /// SNORD25 /// SNORD26 /// SNORD27 /// SNORD28 /// SNORD29 /// SNORD31 / Fold change vs veh, SNHG1 /// SNORD22 /// SNORD25 /// SNORD26 /// SNORD27 /// SNORD28 /// SNORD29 /// SNORD31 / Fold change (Aza/veh), C12orf56 (ProbeSet 11735607_a_at) / Fold change (ACY-1035/veh), C12orf56 (ProbeSet 11735607_a_at) / Fold change (Aza/veh), FGFR1OP (ProbeSet 11751329_s_at) / Fold change (ACY-1035/veh), FGFR1OP (ProbeSet 11751329_s_at) / Fold change (Aza/veh), VPS36 (ProbeSet 11739960_a_at) / Fold change (ACY-1035/veh), VPS36 (ProbeSet 11739960_a_at) / RFU SYPL1 (11715823_x_at) / Fold change /veh SYPL1 (11715823_x_at) / RFU IGFBP7 (11715501_s_at) / Fold change /veh IGFBP7 (11715501_s_at) / RFU REEP3 (11722064_at) / Fold change /veh REEP3 (11722064_at) / RFU IGLL1 (11728026_x_at) / Fold change /veh IGLL1 (11728026_x_at): dose or concentration left out as unconfirmed. As to conditions: ProbeSet 11746640_a_at; LIST D.

For the compound `Nc1ccc(-c2cccs2)cc1NC(=O)c1ccc2c(c1)cc(C1CC1)n2CCN1CCOCC1` [ACY-1035], the “RFU, RASSF2” value amounted to 39.78 RFU.
